# Measured values reported in patent US5559025A (priority 1991, dated 1996).
# “Also recorded” adds a separate entry of the source. Read-outs that look alike come from different tables or passages of the source. *1 amine or outer side, *2 acyl side, *3 side chain or, on linkers, in order; H or OH if unused. Where a SMILES comes first, the peptide text is derived from it. CO = O=C([*:1])[*:2]
# Legend:
# Type in all cases: biochemical
# HRV2 2A proteinase [1] = target: T1, HRV2 2A proteinase (Human rhinovirus 2, UniProt P04936)
# Target sequence in this assay (P04936 851-992 limits assumed): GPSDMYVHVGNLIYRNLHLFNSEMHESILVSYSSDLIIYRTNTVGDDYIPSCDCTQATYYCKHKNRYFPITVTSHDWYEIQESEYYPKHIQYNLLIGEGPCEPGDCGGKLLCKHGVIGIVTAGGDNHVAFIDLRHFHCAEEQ
# HRV2 2A proteinase [2] = target: T1, HRV2 2A proteinase; experiment: Km determination with peptide substrate P89 (trans-cleavage assays); conditions: peptide substrate P89, 15° C., 50 to 500 μmol/l, repeated three times with various 2A preparations
# Procedure: […] For competitive or inhibitory studies, an additional 5 μl of solution containing the substance for competition or inhibition are added. The reaction is stopped by adding an equal volume of a 0.5M HClO4 solution. The samples are cooled to 0° C. for 10 minutes or frozen overnight at -20° C. After centrifugation (Eppendorf centrifuge, 10 min, 4° C.) an equal volume of a 1.4M K2 HPO4 solution is added. The samples are left to stand for 5 minutes at ambient temperature and the precipitate is separated off by centrifuging. […] The reaction products are detected by UV absorption at 214 and 280 nm. The course of the reaction over a period of time (% cleavage of the peptide substrate) is determined by "reverse phase" HPLC. The area of the newly formed peptide peak corresponding to the quantity of the carboxy- and amino terminal cleavage products is determined for each case and compared with the area of the uncleaved P89. The cleavage products are determined either by comigration with the corresponding reference peptides and amino acid analysis or by protein sequencing (Hunkapillar and Hood, 1983, loc. cit.). […]
# In order to identify the Km value for the Wild type substrate P89 a set of trans-cleavage assays are carried out at 15° C. with various P89 substrate concentrations (between 50 and 500 μmol/l). […] For each substrate concentration the reaction speed was determined (% cleavage of P89). […]
# HRV2 2A proteinase [3] = target: T1, HRV2 2A proteinase; conditions: for cleavability by HRV2 2A (in words): trans-cleavage assay, 34° C., up to 32 minutes
# HRV2 2A proteinase [4] = target: T1, HRV2 2A proteinase; experiment: Competition of non-cleavable or slightly cleavable peptides with P89 cleaving
# [5] = inhibitor added before start of reaction, repeated three times
molecule,measurement,setting,value
CC(=O)N[C@@H](CC(C)C)C(=O)N[C@@H](CC(C)C)C(=O)N[C@H](C=O)CCCNC(=N)N [Leupeptine],effect on the activity of 2A relative to peptide P89,HRV2 2A proteinase [1]; [5],ineffectiveness
"acetyl-TRPIITTA*GPSDMYVH-NH2 (Ac-TRPIITTAGPSDMYVH-NH2; not fully specified (residue 8); printed as acetyl-TRPIITTA*GPSDMYVH-NH2) [P89, reference compound]",Km,HRV2 2A proteinase [2],540 µM
same,cleavability by HRV2 2A (in words),HRV2 2A proteinase [3],specifically cleaved
"Cc1ccc(S(=O)(=O)N[C@@H](Cc2ccccc2)C(=O)CCl)cc1 [TPCK, Tosylphenylalanylchloromethylketone]",effect on the activity of 2A relative to peptide P89,HRV2 2A proteinase [1]; [5],only effective at higher concentrations
"Cc1ccc(S(=O)(=O)N[C@@H](CCCCN)C(=O)CCl)cc1 [TLCK, Tosyllysylchloromethylketone]",effect on the activity of 2A relative to peptide P89,HRV2 2A proteinase [1]; [5],only effective at higher concentrations
chymostatin,effect on the activity of 2A relative to peptide P89,HRV2 2A proteinase [1]; [5],highly effective
"O[C@H](CS)[C@H](O)CS (racemic) [DTT, Dithiothreitol]",effect on the activity of 2A relative to peptide P89,HRV2 2A proteinase [1]; [5],no effect
N[C@@H](CS)C(=O)O [cysteine],effect on the activity of 2A relative to peptide P89,HRV2 2A proteinase [1]; [5],no effect
"c1cnc2c(c1)ccc1cccnc12 [1,10-phenanthrolene]",effect on the activity of 2A relative to peptide P89,HRV2 2A proteinase [1]; [5],a certain inhibiting effect at higher concentrations
"Ac-ITTAGPSD-NH2 [WTD8, ITTAGPSD]",cleavability by HRV2 2A (in words),HRV2 2A proteinase [3],cannot be cleaved
same,ability to act as competitor/inhibitor of P89 cleaving,HRV2 2A proteinase [4],became competitive; also recorded: behaved competitively; also recorded: competitive inhibitors
Ac-TRPIITTAG-NH2 [WTN9],% cleavage compared with P89,HRV2 2A proteinase [3],10%
same,cleavability by HRV2 2A (in words),HRV2 2A proteinase [3],sufficient for a cleavage
"TRIITSAGPSDMYV [B4, Thr for Ser at position P2]",ability to act as competitor/inhibitor of P89 cleaving,HRV2 2A proteinase [4],became competitive; also recorded: behaved competitively
"N=C(N)c1ccc(CS(=O)(=O)F)cc1 [APMSF, 4-(Amidinophenyl)methanesulphonylfluoride]",effect on the activity of 2A relative to peptide P89,HRV2 2A proteinase [1]; [5],no activity
Ac-ITTAGPSDMYVH-NH2 [D],cleavability by HRV2 2A (in words),HRV2 2A proteinase [3],fall in cleavability of one order of magnitude; also recorded: reduction in the cleavability by one order of magnitude
CC(C)[C@H](NC(=O)[C@H](CCCNC(=N)N)NC(=O)N[C@@H](Cc1ccccc1)C(=O)O)C(=O)N[C@H](C=O)CCCNC(=N)N [antipain] ({Phe-CO}-Arg-Val-Arg-aldehyde),effect on the activity of 2A relative to peptide P89,HRV2 2A proteinase [1]; [5],highly effective
CCN1C(=O)C=CC1=O [N-ethylmaleimide],effect on the activity of 2A relative to peptide P89,HRV2 2A proteinase [1]; [5],strongly inhibit
O=C(O)CN(CCN(CC(=O)O)CC(=O)O)CC(=O)O [EDTA],effect on the activity of 2A relative to peptide P89,HRV2 2A proteinase [1],a certain inhibiting effect at higher concentrations
"TRPIITNAGPSDMYV [B8, Thr for Asn at position P2]",ability to act as competitor/inhibitor of P89 cleaving,HRV2 2A proteinase [4],became competitive; also recorded: behaved competitively
"O=c1oc(Cl)c(Cl)c2ccccc12 [3,4-dichloroisocumarin]",effect on the activity of 2A relative to peptide P89,HRV2 2A proteinase [1]; [5],no activity
"TRPIITTPSDMYVH [AB2, deleted Wild type substrate, missing cleavage site]",cleavability by HRV2 2A (in words),HRV2 2A proteinase [3],No cleaving (nor any alternative) is observed; also recorded: No cleavage (nor any alternative cleavage) was observed; also recorded: cannot be cleaved
same,ability to act as competitor/inhibitor of P89 cleaving,HRV2 2A proteinase [4],became competitive; also recorded: behaved competitively; also recorded: competitive inhibitors
CC(C)CC(NC(=O)C1OC1C(=O)O)C(=O)NCCCCNC(=N)N (stereo not drawn) [E-64],effect on the activity of 2A relative to peptide P89,HRV2 2A proteinase [1]; [5],no effect
"Ac-IITTAGPSDM-NH2 [P145, IITTAGPSDM]",cleavability by HRV2 2A (in words),HRV2 2A proteinase [3],cannot be cleaved
same,ability to act as competitor/inhibitor of P89 cleaving,HRV2 2A proteinase [4],became competitive; also recorded: behaved competitively; also recorded: competitive inhibitors
NC(=O)CI [iodacetamide],effect on the activity of 2A relative to peptide P89,HRV2 2A proteinase [1]; [5],strongly inhibit
"TRPIITTNGPSDMYV [G5, Ala for Asn at position P1]",cleavability by HRV2 2A (in words),HRV2 2A proteinase [3],dramatically reduced cleavability
same,ability to act as competitor/inhibitor of P89 cleaving,HRV2 2A proteinase [4],became competitive; also recorded: behaved competitively
CC(C)C[C@H](NC(=O)N[C@H](C(=O)N[C@@H](CCC(N)=O)C(=O)N[C@@H](C)C=O)[C@@H]1CCNC(=N)N1)C(=O)O [elastatinal],effect on the activity of 2A relative to peptide P89,HRV2 2A proteinase [1]; [5],highly effective
